Laboratory results as given in the NIST ThermoML archive (doi:10.1021/je100839v).
Numbers after ± are expanded uncertainties. Values belong to the molecule of their own block, whether it stands above or below them.

Settings: for Glass transition temperature: DTA; for vapor or sublimation pressure: Liquid, Closed cell (Static) method

Structure (SMILES): CCCCn1cc[n+](C)c1.F[B-](F)(F)F [1-butyl-3-methylimidazolium tetrafluoroborate]
Glass transition temperature: -85.0 ± 3 °C

Structure (SMILES): CCCCn1cc[n+](C)c1.N#C[S-] [1-butyl-3-methylimidazolium thiocyanate]
Glass transition temperature: -89.0 ± 3 °C

Structure (SMILES): CCOS(=O)(=O)[O-].CCn1cc[n+](C)c1 [1-ethyl-3-methylimidazolium ethyl sulfate]
Glass transition temperature: -86.0 ± 3 °C

Next, values leading:

Glass transition temperature: -62.0 ± 3 °C
Structure (SMILES): CCCCn1cc[n+](C)c1.[I-] [1-butyl-3-methylimidazolium iodide]

vapor or sublimation pressure (313.85 K): 8.1 ± 3.1 kPa | vapor or sublimation pressure (318.65 K): 10.4 ± 3.2 kPa | vapor or sublimation pressure (323.45 K): 13.2 ± 3.3 kPa | vapor or sublimation pressure (328.35 K): 16.5 ± 3.3 kPa | vapor or sublimation pressure (333.35 K): 20.1 ± 3.5 kPa | vapor or sublimation pressure (338.15 K): 24.9 ± 3.7 kPa | vapor or sublimation pressure (343.05 K): 30.6 ± 3.8 kPa
Structure (SMILES): O [water]
